Results published in ChEMBL document CHEMBL4602605, “Fluoroquinolones structural and medicinal developments (2013-2018): Where are we now?” (Bioorg Med Chem, 2019).
In brackets after ≈: the same amount, converted by molar mass.

How the values were obtained:
Type in all cases: functional
Pseudomonas aeruginosa [1] = assay: Antimicrobial activity against Pseudomonas aeruginosa ATCC 19429 incubated for 18 hrs by CLSI-based microbroth dilution method; settings: ATCC 19429, 18 h
Escherichia coli [2] = assay: Antibacterial activity against Escherichia coli incubated for 18 hrs by CLSI-based broth microdilution method
Staphylococcus aureus [3] = assay: Antimicrobial activity against Staphylococcus aureus ATCC 25923 incubated for 18 hrs by CLSI-based microbroth dilution method; settings: ATCC 25923, 18 h
Escherichia coli [4] = assay: Antibacterial activity against Escherichia coli NCDC 134 by single disk method
Metaphire posthuma = assay: Anthelmintic activity against Pheretima posthuma assessed as mean paralysing time at 200 mg/ml
Paenibacillus polymyxa = assay: Antibacterial activity against Paenibacillus polymyxa NCDC 64 by single disk method
Mus musculus = assay: Analgesic activity in Swiss albino mouse assessed as acetic acid-induced writhing number at 50 mg/kg pretreated for 30 mins followed by acetic acid challenge and measured after 5 to 15 mins (reference value: 30.8 +/- 0.37)
Pseudomonas aeruginosa [5] = assay: Antibacterial activity against Pseudomonas aeruginosa NCDC 105 by single disk method
Staphylococcus aureus [6] = assay: Antibacterial activity against Staphylococcus aureus NCDC 110 by single disk method
Bacillus subtilis = assay: Antibacterial activity against Bacillus subtilis NCDC 71 by single disk method
Pseudomonas aeruginosa [7] = assay: Antimicrobial activity against Pseudomonas aeruginosa ATCC 27853 incubated for 24 hrs; settings: ATCC 27853, 24 h
Escherichia coli [8] = assay: Antimicrobial activity against Escherichia coli ATCC 25922 incubated for 24 hrs; settings: ATCC 25922, 24 h
Streptococcus pneumoniae = assay: Antibacterial activity against Streptococcus pneumoniae ATCC 49619 incubated for 24 hrs; settings: ATCC 49619, 24 h
Staphylococcus aureus [9] = assay: Antimicrobial activity against Staphylococcus aureus ATCC 29213 incubated for 24 hrs; settings: ATCC 29213, 24 h

Row | Compound | MIC (Pseudomonas aeruginosa [1]) [µg/mL] | MIC (Escherichia coli [2]) [µg/mL] | MIC (Staphylococcus aureus [3]) [µg/mL] | MIC (Escherichia coli [4]) [µg/mL] | Time (Metaphire posthuma) [min] | MIC (Paenibacillus polymyxa) [µg/mL] | Activity (Mus musculus) | MIC (Pseudomonas aeruginosa [5]) [µg/mL] | MIC (Staphylococcus aureus [6]) [µg/mL] | MIC (Bacillus subtilis) [µg/mL] | other results
1 | CCCCCCn1cc(C(=O)O)c(=O)c2cc(F)c(N3CCNCC3)cc21.Cl | > 128 | 64 | > 128 |  |  |  |  |  |  |  | 
2 | COc1c(N2CCN(CC(=O)Nc3nc4c(C)cccc4s3)C(C)C2)c(F)cc2c(=O)c(C(=O)O)cn(C3CC3)c12 (stereo not given) |  |  |  | 75 (≈ 129 µM) | 32.4 | 60 (≈ 104 µM) | 20.8 | 85 (≈ 147 µM) | 70 (≈ 121 µM) | 120 (≈ 207 µM) | 
3 | COc1c(N2CCN(CC(=O)Nc3nc4c(F)cccc4s3)C(C)C2)c(F)cc2c(=O)c(C(=O)O)cn(C3CC3)c12 (stereo not given) |  |  |  | 140 (≈ 240 µM) | 23.6 | 25 (≈ 42.8 µM) | 15 | 50 (≈ 85.7 µM) | 15 (≈ 25.7 µM) | 70 (≈ 120 µM) | 
4 | Cc1ccc2nc(NC(=O)CN3CCN(c4cc5c(cc4F)c(=O)c(C(=O)O)cn5C4CC4)CC3)sc2c1 |  |  |  | 20 (≈ 37.3 µM) | 23.2 | 110 (≈ 205 µM) | 16.2 | 45 (≈ 84 µM) | 40 (≈ 74.7 µM) | 35 (≈ 65.3 µM) | 
5 | CCn1cc(C(=O)O)c(=O)c2cc(F)c(N3CCCCCC3)cc21 | > 128 | 16 (≈ 48.1 µM) | 0.5 (≈ 1.5 µM) |  |  |  |  |  |  |  | 
6 | O=C(CN1CCN(c2cc3c(cc2F)c(=O)c(C(=O)O)cn3C2CC2)CC1)Nc1nc2ccc([N+](=O)[O-])cc2s1 |  |  |  | 35 (≈ 61.8 µM) | 22.8 | 55 (≈ 97.1 µM) | 14.2 | 45 (≈ 79.4 µM) | 50 (≈ 88.3 µM) | 25 (≈ 44.1 µM) | 
7 | CCn1cc(C(=O)O)c(=O)c2cc(F)c(N3CCN(CC(=O)Nc4nc5ccc(C)cc5s4)CC3)cc21 |  |  |  | 65 (≈ 124 µM) | 28.4 | 45 (≈ 85.9 µM) | 17.8 | 20 (≈ 38.2 µM) | 25 (≈ 47.7 µM) | 30 (≈ 57.3 µM) | 
8 | Cl.O=C(O)c1cn(CCO)c2cc(N3CCNCC3)c(F)cc2c1=O | 64 | 4 | 64 |  |  |  |  |  |  |  | 
9 | CC(C)n1cc(C(=O)O)c(=O)c2cc(F)c(N3CCNCC3)cc21.Cl | 4 | 0.5 | 8 |  |  |  |  |  |  |  | 
10 | CCN(CC)c1cc2c(cc1F)c(=O)c(C(=O)O)cn2CC | > 128 | 8 (≈ 26.1 µM) | 4 (≈ 13.1 µM) |  |  |  |  |  |  |  | 
11 | Cl.O=C(O)c1cn(Cc2ccccc2)c2cc(N3CCNCC3)c(F)cc2c1=O | 2 | 1 | 2 |  |  |  |  |  |  |  | 
12 | CCn1cc(C(=O)O)c(=O)c2cc(F)c(N3CCN(CC(=O)Nc4nc5ccc(F)cc5s4)CC3)cc21 |  |  |  | 35 (≈ 66.3 µM) | 23.6 | 55 (≈ 104 µM) | 18.6 | 40 (≈ 75.8 µM) | 45 (≈ 85.3 µM) | 65 (≈ 123 µM) | 
13 | CCn1cc(C(=O)O)c(=O)c2cc(F)c(N(C)C)cc21 | 64 (≈ 230 µM) | 2 (≈ 7.19 µM) | 0.5 (≈ 1.8 µM) |  |  |  |  |  |  |  | 
14 | COc1ccc(Cn2cc(C(=O)O)c(=O)c3cc(F)c(N4CCNCC4)cc32)cc1.Cl | > 128 | 128 | 64 |  |  |  |  |  |  |  | 
15 | CN1CCN(c2cc3c(cc2F)c(=O)c(C(=O)O)cn3C2CC2)CC1 | 1 (≈ 2.9 µM) | 0.0078 (≈ 0.0226 µM) | 0.25 (≈ 0.724 µM) |  |  |  |  |  |  |  | 
16 | CCn1cc(C(=O)O)c(=O)c2cc(F)c(N3CCN(CC(=O)Nc4nc5c(Cl)ccc(Cl)c5s4)CC3)cc21 |  |  |  | 60 (≈ 104 µM) | 26.8 | 15 (≈ 25.9 µM) | 17.4 | 30 (≈ 51.9 µM) | 40 (≈ 69.1 µM) | 20 (≈ 34.6 µM) | 
17 | O=C(CN1CCN(c2cc3c(cc2F)c(=O)c(C(=O)O)cn3C2CC2)CC1)Nc1nc2c(Cl)ccc(Cl)c2s1 |  |  |  | 6 (≈ 10.2 µM) | 32.6 | 30 (≈ 50.8 µM) | 15.6 | 65 (≈ 110 µM) | 5 (≈ 8.47 µM) | 10 (≈ 16.9 µM) | 
18 | Cl.NCCNc1cc2c(cc1F)c(=O)c(C(=O)O)cn2C1CC1 | 4 | 1 | 16 |  |  |  |  |  |  |  | 

Row | Compound | MIC (Pseudomonas aeruginosa [1]) [µg/mL] | MIC (Escherichia coli [2]) [µg/mL] | MIC (Staphylococcus aureus [3]) [µg/mL] | MIC (Escherichia coli [4]) [µg/mL] | Time (Metaphire posthuma) [min] | MIC (Paenibacillus polymyxa) [µg/mL] | Activity (Mus musculus) | MIC (Pseudomonas aeruginosa [5]) [µg/mL] | MIC (Staphylococcus aureus [6]) [µg/mL] | MIC (Bacillus subtilis) [µg/mL] | other results
19 | CCCCN(CCCC)c1cc2c(cc1F)c(=O)c(C(=O)O)cn2C1CC1 | > 128 | > 128 | 8 (≈ 21.4 µM) |  |  |  |  |  |  |  | 
20 | Cl.Cn1cc(C(=O)O)c(=O)c2cc(F)c(N3CCNCC3)cc21 | 2 | 0.25 | 8 |  |  |  |  |  |  |  | 
21 | CCn1cc(C(=O)O)c(=O)c2cc(F)c(N3CCN(CC(=O)Nc4nc5ccc([N+](=O)[O-])cc5s4)CC3)cc21 |  |  |  | 125 (≈ 225 µM) | 27 | 75 (≈ 135 µM) | 17.8 | 55 (≈ 99.2 µM) | 105 (≈ 189 µM) | 15 (≈ 27 µM) | 
22 | COc1c(N2CCN(CC(=O)Nc3nc4c([N+](=O)[O-])cccc4s3)C(C)C2)c(F)cc2c(=O)c(C(=O)O)cn(C3CC3)c12 (stereo not given) |  |  |  | 65 (≈ 106 µM) | 1.2 | 45 (≈ 73.7 µM) | 1.63 | 75 (≈ 123 µM) | 60 (≈ 98.3 µM) | 40 (≈ 65.5 µM) | 
23 | CCn1cc(C(=O)O)c(=O)c2cc(F)c(N3CCN(C/C(=N/N)c4ccc(C)cc4)CC3)cc21 |  |  |  |  |  |  |  |  |  |  | MIC (Pseudomonas aeruginosa [7]): 100 µg/mL (≈ 215 µM); MIC (Escherichia coli [8]): 25 µg/mL (≈ 53.7 µM); MIC (Streptococcus pneumoniae): 25 µg/mL (≈ 53.7 µM); MIC (Staphylococcus aureus [9]): 12.5 µg/mL (≈ 26.9 µM)
24 | CCN(CC)c1cc2c(cc1F)c(=O)c(C(=O)O)cn2C1CC1 | 32 (≈ 101 µM) | 1 (≈ 3.14 µM) | 0.5 (≈ 1.57 µM) |  |  |  |  |  |  |  | 
25 | COc1c(N2CCN(CC(=O)Nc3nc4ccc(Cl)c(Cl)c4s3)C(C)C2)c(F)cc2c(=O)c(C(=O)O)cn(C3CC3)c12 (stereo not given) |  |  |  | 70 (≈ 110 µM) | 2.7 | 25 (≈ 39.4 µM) | 0.73 | 30 (≈ 47.3 µM) | 10 (≈ 15.8 µM) | 25 (≈ 39.4 µM) | 
26 | O=C(CN1CCN(c2cc3c(cc2F)c(=O)c(C(=O)O)cn3C2CC2)CC1)Nc1nc2ccc(Cl)cc2s1 |  |  |  | 8 (≈ 14.4 µM) | 26 | 15 (≈ 27 µM) | 13.8 | 15 (≈ 27 µM) | 3 (≈ 5.4 µM) | 4 (≈ 7.19 µM) | 
27 | CCCCn1cc(C(=O)O)c(=O)c2cc(F)c(N3CCNCC3)cc21.Cl | 16 | 2 | 16 |  |  |  |  |  |  |  | 
28 | O=C(O)c1cn(C2CC2)c2cc(N3CCCCCC3)c(F)cc2c1=O | > 128 | 2 (≈ 5.81 µM) | 0.25 (≈ 0.726 µM) |  |  |  |  |  |  |  | 
29 | COc1ccc(/C(CN2CCN(c3cc4c(cc3F)c(=O)c(C(=O)O)cn4C3CC3)CC2)=N\N)cc1 |  |  |  |  |  |  |  |  |  |  | MIC (Pseudomonas aeruginosa [7]): 100 µg/mL (≈ 203 µM); MIC (Escherichia coli [8]): 12.5 µg/mL (≈ 25.3 µM); MIC (Streptococcus pneumoniae): 12.5 µg/mL (≈ 25.3 µM); MIC (Staphylococcus aureus [9]): 6.25 µg/mL (≈ 12.7 µM)
30 | CCn1cc(C(=O)O)c(=O)c2cc(F)c(N3CCN(C/C(=N/NC(N)=O)c4ccccc4)CC3)cc21 |  |  |  |  |  |  |  |  |  |  | MIC (Pseudomonas aeruginosa [7]): 100 µg/mL (≈ 202 µM); MIC (Escherichia coli [8]): 25 µg/mL (≈ 50.6 µM); MIC (Streptococcus pneumoniae): 100 µg/mL (≈ 202 µM); MIC (Staphylococcus aureus [9]): 12.5 µg/mL (≈ 25.3 µM)
31 | CCn1cc(C(=O)O)c(=O)c2cc(F)c(N3CCN(C/C(=N/OC)c4ccc(OC)cc4)CC3)cc21 |  |  |  |  |  |  |  |  |  |  | MIC (Pseudomonas aeruginosa [7]): 100 µg/mL (≈ 201 µM); MIC (Escherichia coli [8]): 50 µg/mL (≈ 101 µM); MIC (Streptococcus pneumoniae): 100 µg/mL (≈ 201 µM); MIC (Staphylococcus aureus [9]): 50 µg/mL (≈ 101 µM)
32 | CCn1cc(C(=O)O)c(=O)c2cc(F)c(N3CCN(C/C(=N/OC)c4ccccc4)CC3)cc21 |  |  |  |  |  |  |  |  |  |  | MIC (Pseudomonas aeruginosa [7]): > 100 µg/mL; MIC (Escherichia coli [8]): 50 µg/mL (≈ 107 µM); MIC (Streptococcus pneumoniae): > 100 µg/mL; MIC (Staphylococcus aureus [9]): 50 µg/mL (≈ 107 µM)
33 | CCCCN(CCCC)c1cc2c(cc1F)c(=O)c(C(=O)O)cn2CC | > 128 | > 128 | 8 (≈ 22.1 µM) |  |  |  |  |  |  |  | 
34 | CCn1cc(C(=O)O)c(=O)c2cc(F)c(N3CCN(C/C(=N\Nc4ccccc4)c4ccccc4)CC3)cc21 |  |  |  |  |  |  |  |  |  |  | MIC (Pseudomonas aeruginosa [7]): 100 µg/mL (≈ 190 µM); MIC (Escherichia coli [8]): 25 µg/mL (≈ 47.4 µM); MIC (Streptococcus pneumoniae): 100 µg/mL (≈ 190 µM); MIC (Staphylococcus aureus [9]): 50 µg/mL (≈ 94.8 µM)
35 | CCn1cc(C(=O)O)c(=O)c2cc(F)c(N3CCN(C/C(=N/Nc4ccccc4)c4ccc(C)cc4)CC3)cc21 |  |  |  |  |  |  |  |  |  |  | MIC (Pseudomonas aeruginosa [7]): > 100 µg/mL; MIC (Escherichia coli [8]): 25 µg/mL (≈ 46.2 µM); MIC (Streptococcus pneumoniae): 100 µg/mL (≈ 185 µM); MIC (Staphylococcus aureus [9]): 50 µg/mL (≈ 92.3 µM)
